Data on eleven molecules can be found in EP2905024A1 (Institut Quimic De Sarriá Cets, Fundació Privada, priority 2014, dated 2015).

The CC50 is the concentration giving 50% cytotoxicity. A high value points to lower toxicity to the cells. What is called pEC50 is the negative decadic logarithm of the EC50, by convention in mol/L.

One series is described as follows: cytotoxicity assay (MTT). The class given is cell-based. The settings on record: human, Lunet/HuH7 cells, 2 days of incubation, mean of duplicates; for CC50 at 2 days: Huh-7/Lunet cells (cured HCV replicon cells). From the text: (§1) To analyze the antiviral activity of the compounds, we used a stable cell line, LucUbiNeo-ET, that contains a subgenomic HCV genotype 1b replicon, I389/NS3-3'/ LucUbiNeo-ET, that express luciferase constitutively (Krieger et al, JVI 2001; 75:4614; Frese et al., JGV 2003; 84: 1253-1259). To evaluate the cellular toxicity, we use other cell line, Huh-7/Lunet (Friebe et al., JVI 2005; 79: 380-392), that originally carried a selectable luciferase HCV 1b replicon and was cured by treatment with an HCV-specific inhibitor. These cells are characterized by high permissiveness for HCV RNA replication. LucUbiNeo-ET cell line was cultured at 37°C in a humidified atmosphere with 5% CO2 in Dulbecco's modified Eagle medium (D-MEM) supplemented with high glucose concentration (4.5g/l) (Invitrogen), 10% (vol/vol) heat-inactivated fetal bovine serum (Hyclone, Cultek), 2mM L-Glutamine (Sigma-aldrich), 1mM sodium pyruvate (Sigma-aldrich), 1% MEM NEEA (Sigma-aldrich), and 0.5 mg/ml of Geneticin (G418) (Gibco, Invitrogen). Cured or Huh-7/Lunet cell line was maintained at the same conditions as described above without the addition of Geneticin.
(§2) Antiviral activity was carried out in white-clear bottom 96-well plates, and cytotoxicity assays were performed in clear 96-well plates. Cells were seeded at a density of 10^4/well in 100ul D-MEM without selection of antibiotics. After 24h, nine fivefold serial dilution of compounds, with 3 replicates at each dilution, were prepared in D-MEM and added to the appropriate wells, yielding concentrations of 125 to 0,00032 ug/ml in a final volume of 100 ul of D-MEM. Following 2 days of incubation, we determined the antiviral activity (EC50) by quantifying the luciferase with the Luciferase Bright Glo assay (Promega). Briefly, LucUbiNeo-ET cells were harvested with the addition of 100 ul of luciferase per well, and after 2 minutes of shaking, the light was read in a Luminometer Fluoroskan Ascent FL. Toxicity (CC50) was analysed in the Lunet/HuH7 cells by the addition of 10 ul of MTT (3-(4,5-dimethylthiazol-2-yl)-2,5-diphenyltetrazolium bromide) per well. After 4h of incubation at 37°C in a humidified atmosphere with 5% CO2, the amount of formazan produced was quantified spectrophotometrically at 550/620 nm [C. Pannecouque et al, Nature protocol 2008; 3 (3): 427-434]. The EC50 and CC50 values were calculated for each compound. These assays were done in duplicate and the results shown in Table 1 represent the mean value of these duplicates.

Series [1] has as its system subgenomic HCV genotype 1b replicon, I389/NS3-3'/ LucUbiNeo-ET. Briefly: in vitro antiviral activity: luciferase assay in LucUbiNeo-ET HCV replicon cells. The settings on record: Hepatitis C virus, 48 h, 2 days of incubation, luciferase readout, mean of duplicates. The class given is cell-based.
Description: as §1, §2
(In general: In antiviral work, replicon cells carry a viral genome segment that copies itself.)

pEC50: −log10 of the molar value.

The molecule `Cn1c(=O)c(-c2c(F)cccc2C(F)(F)F)cc2c(N)nc(Nc3ccccc3)nc21` [Example 51, 4-amino-6-(2-fluoro-6-(trifluoromethyl)phenyl)-8-methyl-2-(phenylamino) pyrido[2,3-d]pyrimidine-7(8H)-one] gave a CC50 at 2 days in the series “cytotoxicity assay (MTT)” below 10 µM. The molecule also had a negative-log EC50 (pEC50) in series [1] of 5.30 to 6.00.

Molecule `Cn1c(=O)c(-c2c(Cl)cccc2Cl)cc2c(N)nc(N)nc21` [Example 52] showed a CC50 at 48 h in “cytotoxicity assay (MTT)” (huh-7/lunet cells) of at least 25 µM. Besides, the pEC50 in series [1] was 4.66 to 5.30.

In the series “cytotoxicity assay (MTT)”, `Cn1c(=O)c(-c2c(Cl)cccc2Cl)cc2cnc(Nc3ccccc3)nc21` [Example 53, 6-(2,6-dichlorophenyl)-8-methyl-2-(phenylamino)pyrido[2,3-d]pyrimidine-7(8H)-one] yielded a CC50 at 2 days below 10 µM. Also, the pEC50 in series [1] is above 6.00.

As to `CCn1c(=O)c(-c2c(Cl)cccc2Cl)cc2c(N)nc(Nc3ccccc3)nc21` [Example 54, 4-amino-6-(2,6-dichlorophenyl)-8-ethyl-2-(phenylamino)pyrido[2,3-d] pyrimidine-7(8H)-one], the CC50 at 2 days in “cytotoxicity assay (MTT)” was at least 25 µM. This molecule also gave a pEC50 in series [1] of 5.30 to 6.00.

Regarding `CCCn1c(=O)c(-c2c(Cl)cccc2Cl)cc2c(N)nc(Nc3ccccc3)nc21` [Example 55, 4-amino-6-(2,6-dichlorophenyl)-2-(phenylamino)-8-propylpyrido[2,3-d] pyrimidine-7(8H)-one], in “cytotoxicity assay (MTT)”, the CC50 at 2 days is at least 25 µM. The molecule further had a pEC50 in series [1] of 5.30 to 6.00.

In the series “cytotoxicity assay (MTT)”, `CCCCn1c(=O)c(-c2c(Cl)cccc2Cl)cc2c(N)nc(Nc3ccccc3)nc21` [Example 56, 4-amino-8-butyl-6-(2,6-dichlorophenyl)-2-(phenylamino)pyrido[2,3-d] pyrimidine-7(8H)-one] registered a 50% cytotoxic concentration (CC50) at 2 days of at least 25 µM. This molecule also gave a pEC50 in series [1] of 4.66 to 5.30.

With `CC(C)Cn1c(=O)c(-c2c(Cl)cccc2Cl)cc2c(N)nc(Nc3ccccc3)nc21` [Example 57, 4-amino-6-(2,6-dichlorophenyl)-8-isobutyl-2-(phenylamino)pyrido[2,3-d] pyrimidine-7(8H)-one], the CC50 at 2 days in the series “cytotoxicity assay (MTT)” was at least 25 µM. The molecule also gave a pEC50 in series [1] above 6.00.

Consider `COCCn1c(=O)c(-c2c(Cl)cccc2Cl)cc2c(N)nc(Nc3ccccc3)nc21` [Example 58, 4-amino-6-(2,6-dichlorophenyl)-8-(2-methoxyethyl)-2-(phenylamino) pyrido[2,3-d]pyrimidine-7(8H)-one], for which the CC50 at 2 days in the series “cytotoxicity assay (MTT)” was at least 25 µM. Moreover, the pEC50 in series [1] is above 6.00.

In turn, `Nc1nc(Nc2ccccc2)nc2c1cc(-c1c(Cl)cccc1Cl)c(=O)n2CCO` [Example 59, 4-amino-6-(2,6-dichlorophenyl)-8-(2-hydroxyethyl)-2-(phenylamino) pyrido[2,3-d]pyrimidine-7(8H)-one] registered a CC50 at 2 days in “cytotoxicity assay (MTT)” of at least 25 µM. The same molecule gave a pEC50 in series [1] of 5.30 to 6.00.

Take `Cn1c(=O)c(-c2c(Cl)cccc2Cl)cc2c(N)nc(Nc3ccc(Br)cc3)nc21` [Example 60, 4-amino-2-((4-bromophenyl)amino)-6-(2,6-dichlorophenyl)-8-methylpyrido[2,3-d]pyrimidine-7(8H)-one]: the CC50 at 2 days in the series “cytotoxicity assay (MTT)” is below 10 µM. This molecule gave a pEC50 in series [1] above 6.00.

Take `CN1CCN(c2ccc(Nc3nc(N)c4cc(-c5c(Cl)cccc5Cl)c(=O)n(C)c4n3)cc2)CC1` [Example 61]: the CC50 at 2 days in “cytotoxicity assay (MTT)” is below 10 µM. Moreover, the pEC50 in series [1] was above 6.00.
